Holding throughout (experiment): cell-based
Holding throughout (details): HEK293; relative to aldosterone = 100%; read-out: % relative to Aldo

In experiment [1] the target is T1, full-length elephant shark MR (Callorhinchus milii, UniProt A0A4W3I5J5).
T1 construct: gene nr3c2; full coding region in pcDNA3.1, expressed in HEK293 cells
T1 sequence (A0A4W3I5J5 1-956): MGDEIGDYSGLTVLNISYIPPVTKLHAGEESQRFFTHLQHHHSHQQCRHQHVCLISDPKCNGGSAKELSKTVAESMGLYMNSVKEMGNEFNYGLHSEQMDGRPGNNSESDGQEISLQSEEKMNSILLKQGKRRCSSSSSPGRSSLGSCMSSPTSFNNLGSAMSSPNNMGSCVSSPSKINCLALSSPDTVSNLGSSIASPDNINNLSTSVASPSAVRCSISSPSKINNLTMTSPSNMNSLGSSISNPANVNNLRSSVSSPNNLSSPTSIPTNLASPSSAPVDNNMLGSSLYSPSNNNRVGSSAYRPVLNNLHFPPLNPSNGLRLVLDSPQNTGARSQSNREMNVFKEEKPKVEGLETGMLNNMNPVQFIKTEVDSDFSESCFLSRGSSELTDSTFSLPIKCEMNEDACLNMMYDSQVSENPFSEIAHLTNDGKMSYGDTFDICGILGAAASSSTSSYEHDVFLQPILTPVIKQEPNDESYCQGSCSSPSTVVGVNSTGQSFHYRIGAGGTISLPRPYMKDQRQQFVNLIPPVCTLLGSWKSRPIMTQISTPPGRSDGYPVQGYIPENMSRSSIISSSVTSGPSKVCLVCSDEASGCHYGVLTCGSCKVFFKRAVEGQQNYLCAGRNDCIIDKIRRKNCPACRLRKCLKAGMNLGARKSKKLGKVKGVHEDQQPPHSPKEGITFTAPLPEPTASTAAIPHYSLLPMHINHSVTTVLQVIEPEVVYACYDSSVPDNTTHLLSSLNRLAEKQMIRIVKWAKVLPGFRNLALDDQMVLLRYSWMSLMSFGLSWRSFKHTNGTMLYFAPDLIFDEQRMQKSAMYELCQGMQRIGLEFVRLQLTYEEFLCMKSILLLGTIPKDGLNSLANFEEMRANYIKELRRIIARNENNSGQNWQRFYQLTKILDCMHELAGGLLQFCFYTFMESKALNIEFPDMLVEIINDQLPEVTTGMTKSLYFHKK
Also on record: transcriptional activation of full-length MR, MMTV-luciferase reporter, concentration-response. An excerpt: (§1) Figure 3. Transcriptional activation of elephant shark MR by 3-ketosteroids. Full length and truncated elephant shark MR were expressed in HEK293 cells with an MMTV-luciferase reporter. A. Full length elephant shark MR. […] (19NP), 17OH-Prog, Spiron or vehicle alone (DMSO). B. Truncated elephant shark MR. […] (19NP), 17OH-Prog or Spiron or vehicle alone (DMSO). Results are expressed as means ± SEM, n=3. Y-axis indicates fold-activation compared to the activity of control vector with vehicle (DMSO) alone as 1.  Figure 4. Concentration-dependent transcriptional activation of full-length and truncated elephant shark MR (shark MR) by 3-ketosteroids. Full length and truncated elephant shark MR (shark MR) were expressed in HEK293 cells with an MMTV-luciferase reporter. Full-length elephant shark MR (shark MR) (A) and (C) and truncated elephant shark MR (shark MR) (B) and (D). (A), (B) Aldo, cortisol, corticosterone, 11deoxycorticosterone or 11-deoxycortisol. (C), (D) Aldo, Prog, [compound left out] [compound left out], 17OH-Prog (17OH-P) or Spiron. […] Y-axis indicates fold-activation compared to the activity of control vector with vehicle (DMSO) alone as 1.  Figure 5. Concentration-dependent transcriptional activation of full-length and truncated chicken and zebrafish MR by progestins and Spironolactone. […] Full-length chicken MR (A) and zebrafish MR (B) and truncated chicken MR (C) and zebrafish MR (D). Y-axis indicates fold-activation compared to the activity of control vector with vehicle (DMSO) alone as 1.

The target of another experiment is T2, full-length zebrafish MR (Danio rerio, UniProt A6YIH7).
T2 construct: gene nr3c2; full-length, expressed in HEK293 cells
T2 sequence (A6YIH7 1-970): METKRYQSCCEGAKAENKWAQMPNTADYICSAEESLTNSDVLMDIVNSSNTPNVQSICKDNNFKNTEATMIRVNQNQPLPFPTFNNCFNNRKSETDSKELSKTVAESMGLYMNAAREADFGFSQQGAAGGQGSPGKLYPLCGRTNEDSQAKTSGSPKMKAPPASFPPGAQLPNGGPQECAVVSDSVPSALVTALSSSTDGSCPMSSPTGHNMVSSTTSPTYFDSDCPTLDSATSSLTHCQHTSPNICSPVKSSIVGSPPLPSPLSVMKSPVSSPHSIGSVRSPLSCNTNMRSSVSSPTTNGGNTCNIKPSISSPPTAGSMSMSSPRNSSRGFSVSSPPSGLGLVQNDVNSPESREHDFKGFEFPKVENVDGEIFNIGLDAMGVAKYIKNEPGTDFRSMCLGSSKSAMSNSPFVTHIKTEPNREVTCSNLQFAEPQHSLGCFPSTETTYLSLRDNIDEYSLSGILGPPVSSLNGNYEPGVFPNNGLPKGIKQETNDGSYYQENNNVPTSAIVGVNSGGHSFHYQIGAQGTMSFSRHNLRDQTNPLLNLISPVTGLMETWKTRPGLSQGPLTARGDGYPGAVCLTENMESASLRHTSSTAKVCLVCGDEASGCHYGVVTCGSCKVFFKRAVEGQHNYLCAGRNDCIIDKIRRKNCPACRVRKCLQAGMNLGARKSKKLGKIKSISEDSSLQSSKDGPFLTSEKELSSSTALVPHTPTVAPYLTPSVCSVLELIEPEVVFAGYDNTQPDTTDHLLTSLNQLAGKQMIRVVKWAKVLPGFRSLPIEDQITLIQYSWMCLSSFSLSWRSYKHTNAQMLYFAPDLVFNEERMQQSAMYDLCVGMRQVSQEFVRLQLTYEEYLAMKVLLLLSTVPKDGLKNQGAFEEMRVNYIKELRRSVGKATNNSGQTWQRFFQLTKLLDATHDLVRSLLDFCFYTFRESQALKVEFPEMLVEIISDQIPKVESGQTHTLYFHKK
Also on record: transcriptional activation of full-length MR, MMTV-luciferase reporter, concentration-response.
Source text: as §1

Another experiment concerns the target T3, full-length chicken MR (Gallus gallus, UniProt C1KB84).
T3 construct: gene NR3C2; full-length, expressed in HEK293 cells
T3 sequence (C1KB84 1-986): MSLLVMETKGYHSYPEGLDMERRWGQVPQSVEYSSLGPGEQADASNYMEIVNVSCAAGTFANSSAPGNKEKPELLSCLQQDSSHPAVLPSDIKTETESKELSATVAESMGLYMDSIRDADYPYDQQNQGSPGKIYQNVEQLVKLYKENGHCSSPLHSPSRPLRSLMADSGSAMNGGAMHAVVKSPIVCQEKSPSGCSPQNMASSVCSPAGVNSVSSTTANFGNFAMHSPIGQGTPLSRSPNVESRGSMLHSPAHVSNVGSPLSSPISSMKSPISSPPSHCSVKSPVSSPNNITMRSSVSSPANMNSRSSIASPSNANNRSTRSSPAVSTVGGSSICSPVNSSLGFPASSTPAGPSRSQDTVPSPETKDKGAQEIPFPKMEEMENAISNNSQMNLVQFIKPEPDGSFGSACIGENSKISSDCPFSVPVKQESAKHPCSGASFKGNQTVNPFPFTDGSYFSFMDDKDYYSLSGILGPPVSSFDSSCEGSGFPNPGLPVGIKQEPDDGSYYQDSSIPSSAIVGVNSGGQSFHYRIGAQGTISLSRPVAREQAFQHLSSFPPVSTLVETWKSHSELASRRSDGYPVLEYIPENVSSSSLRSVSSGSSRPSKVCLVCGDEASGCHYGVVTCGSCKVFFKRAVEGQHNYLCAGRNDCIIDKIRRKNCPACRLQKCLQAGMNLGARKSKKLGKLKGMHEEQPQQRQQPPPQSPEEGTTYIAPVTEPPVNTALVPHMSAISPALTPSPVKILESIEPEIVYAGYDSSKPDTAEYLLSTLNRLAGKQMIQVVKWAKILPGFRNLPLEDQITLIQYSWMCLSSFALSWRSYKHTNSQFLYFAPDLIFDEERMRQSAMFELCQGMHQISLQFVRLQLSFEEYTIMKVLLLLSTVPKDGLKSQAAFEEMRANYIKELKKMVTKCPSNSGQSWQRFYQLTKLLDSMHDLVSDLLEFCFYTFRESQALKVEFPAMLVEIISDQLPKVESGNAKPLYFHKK
Also on record: transcriptional activation of full-length MR, MMTV-luciferase reporter, concentration-response.
Source text: as §1

The target of experiment [2] is T4, truncated elephant shark MR (GAL4-DBD-MR-LBD) (Callorhinchus milii, UniProt A0A4W3I5J5).
T4 construct: gene nr3c2
T4 sequence (A0A4W3I5J5 658-956 limits assumed): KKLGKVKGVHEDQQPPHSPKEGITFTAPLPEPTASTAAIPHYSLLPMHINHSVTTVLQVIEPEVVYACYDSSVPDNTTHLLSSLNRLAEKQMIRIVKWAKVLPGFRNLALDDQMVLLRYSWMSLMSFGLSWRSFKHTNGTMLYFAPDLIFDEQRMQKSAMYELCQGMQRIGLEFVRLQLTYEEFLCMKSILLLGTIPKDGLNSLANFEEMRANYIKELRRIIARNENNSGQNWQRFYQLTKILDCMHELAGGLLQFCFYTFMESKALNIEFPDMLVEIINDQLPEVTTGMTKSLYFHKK
Also on record: transcriptional activation of truncated GAL4-DBD-MR-LBD, luciferase reporter, concentration-response. An excerpt:
(§2) In parallel experiments, truncated elephant shark MR, lacking the A/B domain and containing a GAL4-DBD instead of the MR DBD, retained a strong response to all corticosteroids and to [compound left out] (Figure 3B). […] Concentration-dependent transcriptional activation of full-length and truncated elephant shark MR (shark MR) by 3-ketosteroids. Full length and truncated elephant shark MR (shark MR) were expressed in HEK293 cells with an MMTV-luciferase reporter. Full-length elephant shark MR (shark MR) (A) and (C) and truncated elephant shark MR (shark MR) (B) and (D). (A), (B) Aldo, cortisol, corticosterone, 11deoxycorticosterone or 11-deoxycortisol. (C), (D) Aldo, Prog, [compound left out] [compound left out], 17OH-Prog (17OH-P) or Spiron. […] Y-axis indicates fold-activation compared to the activity of control vector with vehicle (DMSO) alone as 1.  Figure 5. Concentration-dependent transcriptional activation of full-length and truncated chicken and zebrafish MR by progestins and Spironolactone. […] Full-length chicken MR (A) and zebrafish MR (B) and truncated chicken MR (C) and zebrafish MR (D). Y-axis indicates fold-activation compared to the activity of control vector with vehicle (DMSO) alone as 1.

Experiment [3] deals with T5, truncated zebrafish MR (GAL4-DBD-MR-LBD) (Danio rerio, UniProt A6YIH7).
T5 construct: gene nr3c2
T5 sequence (A6YIH7 669-970 limits assumed): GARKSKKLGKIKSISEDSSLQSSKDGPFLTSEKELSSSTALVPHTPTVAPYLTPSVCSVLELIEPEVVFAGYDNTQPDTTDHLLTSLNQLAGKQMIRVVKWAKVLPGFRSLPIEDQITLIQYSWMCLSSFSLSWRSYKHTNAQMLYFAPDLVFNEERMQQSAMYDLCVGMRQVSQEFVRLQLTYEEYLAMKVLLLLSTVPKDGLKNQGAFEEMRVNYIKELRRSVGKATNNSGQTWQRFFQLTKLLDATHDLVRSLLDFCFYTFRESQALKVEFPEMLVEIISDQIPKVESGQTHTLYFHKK
Also on record: transcriptional activation of truncated GAL4-DBD-MR-LBD, luciferase reporter, concentration-response.
Source text: as §2

In the case of `CC(=O)S[C@@H]1CC2=CC(=O)CC[C@]2(C)[C@H]2CC[C@@]3(C)[C@@H](CC[C@@]34CCC(=O)O4)[C@H]12` [Spiron], the Emax in experiment [1] is 45%; on full-length zebrafish MR, 54%; at full-length chicken MR, 30%; in experiment [2], 53%.
As for `CC(=O)[C@H]1CC[C@H]2[C@@H]3CCC4=CC(=O)CC[C@@H]4[C@H]3CC[C@]12C` [19norProg], the Emax in experiment [1] was 84%; at full-length zebrafish MR, 83%; on full-length chicken MR, 68%; in experiment [2], 98%; in experiment [3], 122%.
Regarding `CC(=O)[C@H]1CC[C@H]2[C@@H]3CCC4=CC(=O)CC[C@]4(C)[C@H]3CC[C@]12C` [Prog], the Emax is 43% in experiment [1]; 77% at full-length zebrafish MR; 62% on full-length chicken MR; 40% in experiment [2]; 122% in experiment [3].
For `C[C@]12C[C@H](O)[C@H]3[C@@H](CCC4=CC(=O)CC[C@@]43C)[C@@H]1CC[C@@H]2C(=O)CO` [B, corticosterone], the Emax in experiment [1] is 101%; in experiment [2], 90%.
In the same order, the values of `C[C@]12CCC(=O)C=C1CC[C@@H]1[C@@H]2[C@@H](O)C[C@@]2(C)[C@H]1CC[C@]2(O)C(=O)CO` [cortisol] are 114% and 79%.
The matching figures for `C[C@]12CCC(=O)C=C1CC[C@@H]1[C@@H]2CC[C@@]2(C)[C@H]1CC[C@]2(O)C(=O)CO` [S, 11-deoxycortisol]: 83% and 77%.
On to `C[C@]12CC[C@H]3[C@@H](CCC4=CC(=O)CC[C@@]43C)[C@@H]1CC[C@@H]2C(=O)CO` [11-deoxycorticosterone], for which the results for the Emax in experiment [1] and in experiment [2] were 83% and 81%, respectively.
Turning to `CC(=O)[C@@]1(O)CC[C@H]2[C@@H]3CCC4=CC(=O)CC[C@]4(C)[C@H]3CC[C@@]21C` [17OH-Prog], the Emax in experiment [1] was 25%; at full-length zebrafish MR it was 44%; at full-length chicken MR, 15%; in experiment [2], 26%.
